Data on five compounds can be found in patent US6207709A, “N-substituted-2-amino-4-phenyl-4-oxo-butanoic acid compounds having kynurenine-3-hydroxy base inhibitory activity” (Pharmacia & Upjohn S.p.A., priority 1996, dated 2001).

One data set deals with T1, kynurenine-3-hydroxylase (Rattus norvegicus, UniProt O88867).
T1 construct: evaluated in rat brain homogenate; from tissue; host or cells: rat brain homogenate (washed 12000 x g pellet)
Kind of data set: Kynurenine-3-hydroxylase assay in the rat brain (homogenate). It is filed as biochemical. The following applies: L-kynurenine 50 μM, 60 min incubation, pH 7.5, read-out: IC 50, enzyme inhibition (rat brain). As to the method:
(A) Kynurenine-3-hydroxylase assay in the rat brain
Brain was homogenized in ice-cold 0.32 M sucrose and centrifuged at 12000×g for 30 min at 4° C. The pellet was washed three times with 0.32 M sucrose by centrifugation and suspended in 0.14 M KCl in 20 mM K-phosphate buffer at pH 7 (1 g tissue in 2 ml buffer).
The reaction mixture contained: 75 μl of suspended homogenate; 100 μl of substrate solution containing 50 mM K-phosphate buffer pH 7.5, 2 mM MgCl2, 0.4 mM NADPH and 50 μM L-kynurenine (final concentration): 25 μl of different concentrations of inhibitor solutions). The reaction was stopped by addition of 200 μl of 1 M HClO4 after 60 min incubation. L-3-hydroxykynurenine formed was quantified by HPLC with coulometric detection at a working voltage of +0.2 V. The column was a 10 cm C18 reversed phase (3 μm. The mobile phase consisted of 950 ml distilled water, 20 ml acetonitrile, 9 ml triethylamine, 5.9 ml phosphoric acid, 100 mg sodium EDTA and 1.5 g heptanesulfonic acid. The flow rate was 1 ml/min.

In data set [1] the test system is ionotropic excitatory aminoacid receptors. The settings on record: preferentially acting at the glycine co-agonist site of the NMDA receptor; cited from earlier work.
For data set [2], the system named is N-methyl-D-aspartate (NMDA) receptor. The following applies: cited from earlier work.
For another data set, the system named is neuronal cell cultures. The settings on record: relatively low QUIN concentrations; prolonged period of time or in combination with glutamate; cited from earlier work.
For data set [3] the following is noted: cited from earlier work.

T1 sequence (O88867 whole entry): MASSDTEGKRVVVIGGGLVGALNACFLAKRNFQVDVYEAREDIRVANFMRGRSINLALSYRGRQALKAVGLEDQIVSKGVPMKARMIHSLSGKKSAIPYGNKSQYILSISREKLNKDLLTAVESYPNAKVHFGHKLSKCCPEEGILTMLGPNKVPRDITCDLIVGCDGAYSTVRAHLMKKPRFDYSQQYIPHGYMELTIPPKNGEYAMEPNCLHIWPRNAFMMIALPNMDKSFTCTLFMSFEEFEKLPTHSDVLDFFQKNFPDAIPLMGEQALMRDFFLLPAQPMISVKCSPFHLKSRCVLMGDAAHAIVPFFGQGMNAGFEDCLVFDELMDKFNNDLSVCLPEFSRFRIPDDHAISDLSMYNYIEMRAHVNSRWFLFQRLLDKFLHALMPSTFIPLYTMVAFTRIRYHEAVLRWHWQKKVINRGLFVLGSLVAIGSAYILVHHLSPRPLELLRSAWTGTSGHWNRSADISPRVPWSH

Turning to `O=C(CC(NC(=O)C(F)(F)F)C(=O)O)c1ccc(Cl)c(Cl)c1` (racemic) [FCE 29256, (R,S)-N-trifluoroacetyl-2-amino-4-oxo-4-(3',4'-dichlorophenyl)butanoic acid], on kynurenine-3-hydroxylase, the IC50 stood at 140 nM. Same read-out and setting: the figure for `O=C(CC(NC(=O)C(F)(F)F)C(=O)O)c1ccc(F)c(F)c1` (racemic) [FCE 29434, (R,S)-N-trifluoroacetyl-2-amino-4-oxo-4-(3',4'-difluorophenyl)butanoic acid] is 270 nM; for `O=C(C[C@H](NC(=O)C(F)(F)F)C(=O)O)c1ccc(Cl)c(Cl)c1` [FCE 29435, (S)-N-trifluoroacetyl-2-amino-4-oxo-4-(3',4'-dichlorophenyl)butanoic acid] it is 240 nM. `O=C(O)c1cc(=O)c2ccccc2[nH]1` [KYNA, kynurenic acid]: the “antagonism at ionotropic excitatory aminoacid receptors (in words)” value in data set [1] is recorded as “broad spectrum antagonist”. For `O=C(O)c1cccnc1C(=O)O` [QUIN, quinolinic acid], the “agonism at NMDA receptor (in words)” value in data set [2] is recorded as “highly selective agonist”. Further, the “neurotoxicity in neuronal cell cultures (in words)” value with neuronal cell cultures is reported as “neurotoxic”. In addition, the “effect in vivo (in words)” value in data set [3] is “produce convulsions and axon sparing lesions”.
